The values below are quoted from earlier work in the PKSmart pharmacokinetics tables (Seal et al. 2025).

The data set can be described thus: Lombardo, Berellini, Obach 2018, Drug Metab Dispos 46:1466, doi 10.1124/dmd.118.082966. Particulars: human; for MRT / Vd / clearance / half-life: in vivo, iv; for fraction unbound: plasma.

Consider `O=C(O)C(O)Cc1ccc(O)c(O)c1` (stereo unspecified), for which the MRT is 0.53 h, the Vd was 0.38 L/kg, the clearance was 17.8 mL/min/kg and the half-life was 0.37 h.
For the molecule `Cc1cn[nH]c1`, the mean residence time (MRT) was 7.94 h, the Vd is 0.35 L/kg, the clearance is 0.73 mL/min/kg and the half-life is 4.42 h.
For the molecule `CCOc1cc([C@@H](CS(C)(=O)=O)N2C(=O)c3cccc(CC(C)=O)c3C2=O)ccc1OC`, the clearance was 2.38 mL/min/kg, the half-life was 6.03 h and the fraction unbound is 0.32.
For `CN(C)CCCN1c2ccccc2CCc2cc(O)ccc21`, the mean residence time (MRT) was 12 h, the Vd is 6.6 L/kg, the clearance is 9.2 mL/min/kg and the half-life was 10 h. The fraction unbound was 0.36.
`Nc1nc(C(=NO)C(=O)NC2C(=O)N3C(C(=O)O)=C(C=C4CCN([C@@H]5CCNC5)C4=O)CS[C@H]23)ns1` (stereo partly specified): the MRT was 3 h, the Vd is 0.27 L/kg, the clearance is 1.5 mL/min/kg and the half-life is 3.3 h. Also, the fraction unbound is 0.62.
For `CNC[C@@H]1CC[C@@H](N)[C@@H](O[C@@H]2[C@H](O)[C@@H](O[C@H]3OC[C@](C)(O)[C@H](NC)[C@H]3O)[C@H](N)C[C@@H]2N)O1`, the MRT is 2.4 h, the volume of distribution (Vd) is 0.15 L/kg, the clearance was 1.1 mL/min/kg and the half-life is 2.1 h.
In the case of `CNC[C@H](O)CC12CCC(c3ccccc31)c1ccccc12`, the MRT was 21.4 h, the distribution volume (Vd) is 18.8 L/kg, the clearance is 14.6 mL/min/kg and the half-life is 18.8 h.
For the molecule `CCN(CC)C(=O)N[C@H]1C=C2c3cccc4[nH]cc(c34)C[C@H]2N(C)C1`, the MRT is 2.17 h, the Vd is 1.73 L/kg, the clearance is 13.3 mL/min/kg and the half-life is 1.8 h.
As to `CSCO[C@H]1C[C@H]2OC[C@@]2(OC(C)=O)[C@H]2[C@H](OC(=O)c3ccccc3)[C@]3(O)C[C@H](OC(=O)C(O)C(NC(=O)c4ccccc4)c4ccccc4)C(C)=C(C(OC(C)=O)C(=O)[C@]12C)C3(C)C` (stereo partly specified), the MRT is 29 h, the Vd is 11 L/kg, the clearance was 6.4 mL/min/kg and the half-life is 32 h.
Consider `CCCCc1nc(C)c(CC(=S)N(C)C)c(=O)n1Cc1ccc(-c2ccccc2-c2nnn[nH]2)cc1`, for which the MRT is 1.1 h, the distribution volume (Vd) is 0.6 L/kg, the clearance is 9.6 mL/min/kg and the half-life was 5.5 h.
Consider `Nc1nc(Cl)nc2c1ncn2[C@H]1C[C@H](O)[C@@H](CO)O1`, for which the MRT is 9.2 h, the Vd is 7.7 L/kg, the clearance is 14 mL/min/kg and the half-life was 16 h. In addition, the fraction unbound was 0.79.
As to `COP(=O)(c1cc(C)cc(/C=C/C#N)c1)c1c(C(N)=O)[nH]c2ccc(Cl)c(F)c12` (stereo unspecified), the mean residence time (MRT) is 8.9 h, the Vd is 0.97 L/kg, the clearance was 1.83 mL/min/kg and the half-life was 7.4 h.
On to `CCCc1nc2c(C)cc(-c3nc4ccccc4n3C)cc2n1Cc1ccc(-c2ccccc2C(=O)O)cc1`, for which the MRT was 11 h, the Vd is 5.3 L/kg, the clearance was 8.4 mL/min/kg and the half-life is 20 h.
As to `COc1cccc2c(C(=O)N3CCN(C)C(C)C3)cn(CC3CCCCC3)c12` (stereo unspecified), the MRT is 5.7 h, the Vd was 1 L/kg, the clearance was 3 mL/min/kg and the half-life is 4.2 h.
As to `Cn1nnnc1SCC1=C(C(=O)O)N2C(=O)C(=NC(=O)C(NOCC(=O)O)c3cc[nH]n3)[C@H]2SC1` (stereo partly specified), the MRT is 1.8 h, the distribution volume (Vd) is 0.22 L/kg, the clearance was 1.83 mL/min/kg and the half-life is 1.33 h.
On to `CCn1cc(C(=O)O)c(=O)c2cc(F)c(N3CCNCC3)cc21`, for which the MRT was 4.5 h, the volume of distribution (Vd) is 1.88 L/kg, the clearance was 6.96 mL/min/kg and the half-life was 4.45 h. For the same molecule, the fraction unbound is 0.13.
In the case of `Cc1ncc([N+](=O)[O-])n1CC(O)CN1CCOCC1` (stereo unspecified), the MRT is 7.9 h, the distribution volume (Vd) is 0.75 L/kg, the clearance was 1.6 mL/min/kg and the half-life was 6.2 h.
With `COc1ccccc1Oc1c(NS(=O)(=O)c2ccc(C)cn2)nc(-c2ccnc(-c3nnn[nH]3)c2)nc1OCCO`, the MRT is 0.4 h, the volume of distribution (Vd) is 0.23 L/kg, the clearance was 10.5 mL/min/kg and the half-life was 2.6 h. In addition, the free fraction (fraction unbound) is 0.02.
For the molecule `Cc1ccc([C@@H]2O[C@H](CO)[C@@H](O)[C@H](O)[C@H]2O)cc1Cc1ccc(-c2ccc(F)cc2)s1`, the MRT is 7.25 h, the Vd was 1.19 L/kg, the clearance is 2.74 mL/min/kg and the half-life was 10.3 h. The free fraction (fraction unbound) is 0.01.
As for `c1ccc(CN(CC2=NCCN2)c2ccccc2)cc1`, the mean residence time (MRT) was 3.45 h, the distribution volume (Vd) is 3.9 L/kg, the clearance is 19.7 mL/min/kg and the half-life was 2.29 h.
Turning to `Cc1nnc(SCC2=C(C(=O)O)N3C(=O)C(NC(=O)C(O)c4ccccc4)[C@H]3SC2)s1` (stereo partly specified), the MRT is 0.83 h, the Vd is 0.13 L/kg, the clearance was 2.6 mL/min/kg and the half-life was 1 h.
In the case of `CCN(CC)CCNC(=O)c1cc(Cl)c(N)cc1OC(C)C(C)=O` (stereo unspecified), the MRT is 2.68 h, the distribution volume (Vd) is 1.5 L/kg, the clearance was 9.32 mL/min/kg and the half-life is 2.7 h. Also, the free fraction (fraction unbound) was 0.46.
For `C=Cc1c(C)c2[nH]c1=Cc1[nH]c(c(=CCC(=O)O)c1C)=Cc1[nH]c(c(C)c1CCC(=O)OC)C=C1NC(=C3C=CC(C(=O)OC)=C(C(=O)OC)[C@@]13C)C=2`, the MRT was 6.6 h, the Vd is 0.63 L/kg, the clearance was 1.6 mL/min/kg and the half-life is 5.6 h.
On to `COc1cc(C(=O)C(=O)N2CCCCC2C(=O)OC(CCCc2cccnc2)CCCc2cccnc2)cc(OC)c1OC` (stereo unspecified), for which the MRT was 2.62 h, the Vd is 1.34 L/kg, the clearance is 8.5 mL/min/kg and the half-life was 1.1 h.
As to `C=CCNc1nc(NCC=C)nc(N2CCN(C(c3ccc(F)cc3)c3ccc(F)cc3)CC2)n1`, the mean residence time (MRT) was 607 h, the distribution volume (Vd) was 35.4 L/kg, the clearance is 0.97 mL/min/kg and the half-life is 1340 h. Moreover, the free fraction (fraction unbound) was 0.01.
In the case of `COCCCC/C(=N\OCCN)c1ccc(C(F)(F)F)cc1`, the mean residence time (MRT) is 12.3 h, the Vd is 23.5 L/kg, the clearance was 31.9 mL/min/kg and the half-life is 12.5 h. Besides, the unbound share (fraction unbound) is 0.2.
`CC(NC(CCc1ccccc1)C(=O)O)C(=O)N1Cc2ccccc2CC1C(=O)O` (stereo unspecified): the MRT was 2.3 h, the Vd is 0.13 L/kg, the clearance is 0.93 mL/min/kg and the half-life is 2.3 h.
Turning to `N=C(N)NC(=O)c1cnn(-c2cccc3ncccc23)c1C1CC1`, the mean residence time MRT is 1.3 h, the distribution volume (Vd) is 1.7 L/kg and the half-life is 2 h.
On to `Clc1cccc(N2CCNCC2)c1`, for which the MRT is 7 h, the distribution volume (Vd) is 2.5 L/kg, the clearance was 6.1 mL/min/kg and the half-life is 4.7 h.
Regarding `C#C[C@]1(O)CC[C@H]2[C@@H]3CCC4=Cc5oncc5C[C@]4(C)[C@H]3CC[C@@]21C`, the MRT was 5.49 h, the Vd is 5.18 L/kg, the clearance was 15.7 mL/min/kg and the half-life is 2.31 h.
In the case of `CC1(C)S[C@@H]2C(NC(=O)COc3ccccc3)C(=O)N2C1C(=O)O` (stereo partly specified), the MRT was 1 h, the Vd was 0.41 L/kg, the clearance was 6.8 mL/min/kg and the half-life is 0.84 h.
Regarding `COC(=O)NC(C(=O)N1CCCC1C(=O)Nc1ccc([C@@H]2CC[C@@H](c3ccc(NC(=O)C4CCCN4C(=O)C(NC(=O)OC)C(C)C)cc3)N2c2ccc(C(C)(C)C)cc2)cc1)C(C)C` (stereo partly specified), the MRT was 23.1 h, the volume of distribution (Vd) was 2.32 L/kg, the clearance was 1.68 mL/min/kg and the half-life was 28.5 h. Besides, the fraction unbound is 0.001.

A word on the MRT: it is the average time that molecules of a dose stay in the body. One may read the Vd as a proportionality between amount in the body and measured concentration, not a real space. What is called clearance is the volume of plasma or blood freed of the substance per unit of time. As a reminder, the half-life is how long it takes for the measured level to halve. As a reminder, the fraction unbound is the share of the substance not bound to proteins or other matrix.
